Experimental data from patent US9993493B2, “Composition for prevention, amelioration or treatment of metabolic syndrome” (HOUSE WELLNESS FOODS CORPORATION, priority 2010, dated 2018).

Experiments:
Type in all cases: in vivo, male KK mice
diet-induced obese mice [1] = test: Test Example 1: glucosyl hesperidin and caffeine fed in low-calorie feed to diet-induced obese mice; details: vs control group, caffeine 0.025 mass %, glucosyl hesperidin 0.25 mass %, mixture 0.25+0.025 mass %; for weight of mesenteric (visceral) fat tissue: 2 weeks low-calorie feed, FIG. 3; for changes in body weight: before and after 2 weeks low-calorie feed, FIG. 1
Source text: In such a situation, the effect of the composition of the present invention comprising glucosyl hesperidin and caffeine was investigated. As the glucosyl hesperidin and caffeine, “Hayashibara Hesperidin S (trade name)” (distributor: Hayashibara Co., Ltd.) and “Chanomoto (trade name)” (purity of caffeine: 98.5%, made by Shiratori Pharmaceutical Co., Ltd.) were used, respectively.
Five-week-old male KK mice were fed with water and a powder feed for breeding (CE-2 (trade name), made by CLEA Japan, Inc.) for one week, and then fed with the high-calorie feed (4.70 kcal/g) in Table 1 shown below for 3 weeks for induction of obesity. The mice were divided into 4 groups (a control group, a caffeine administration group, a glucosyl hesperidin administration group, and a present invention administration group (caffeine+glucosyl hesperidin), 5 to 8 mice per group) and fed with the low-calorie feed (3.16 kcal/g) in Table 1 shown below or the low-calorie feed supplemented with the corresponding test sample for 2 weeks, in expectation of using body fat. The feeds given to the test groups are as follows. • (1) Control group; low-calorie feed • (2) Caffeine administration group; low-calorie feed+0.025 mass % of caffeine • (3) Glucosyl hesperidin administration group; low-calorie feed+0.25 mass % of glucosyl hesperidin • (4) Present invention (mixture of glucosyl hesperidin and caffeine (10:1)) administration group; low-calorie feed+(0.25 mass % of glucosyl hesperidin+0.025 mass % of caffeine)
During the test period (2 weeks from the start of low-calorie feeding), body weight and feed intake were periodically measured. After the end of the test, the mice were euthanized, and mesenteric (visceral) fat tissue was removed and weighed.
(§1) The changes in body weight before and after the test period is shown in FIG. 1, the feed intake during the first 10 days of the test period is shown in FIG. 2, and the weight of mesenteric fat tissue per 100 g of body weight is shown in FIG. 3. The results are shown as Mean±SD of each group. The ** and * in the figures indicate a significant difference with a risk less than 1% and a risk less than 5% from the control, respectively.

diet-induced obese mice [2] = test: Test Example 3: Oligonol and caffeine fed in low-calorie feed to diet-induced obese mice; details: vs control group, caffeine 0.025 mass %, Oligonol 0.1 mass %, mixture 0.1+0.025 mass %
Source text: As the polyphenol containing 15 mass % or more of proanthocyanidin having a polymerization degree of 1 to 3 and caffeine, “Oligonol (trade name)” (distributor: […] Five-week-old male KK mice were fed with water and a powder feed for breeding (CE-2 (trade name), made by CLEA Japan, Inc.) for one week, and then fed with the high-calorie feed (4.70 kcal/g) in Table 1 for 3 weeks for induction of obesity. […] The feeds given to the test groups are as follows. • (1) Control group; low-calorie feed • (2) Caffeine administration group; low-calorie feed+0.025 mass % of caffeine • (3) Oligonol administration group; low-calorie feed+0.1 mass % of Oligonol • (4) Present invention (mixture of Oligonol and caffeine (4:1)) administration group; low-calorie feed+(0.1 mass % of Oligonol+0.025 mass % of caffeine) During the test period (2 weeks from the start of low-calorie feeding), body weight and feed intake were periodically measured. After the end of the test, the mice were euthanized, and subcutaneous fat tissue, epididymal fat tissue, and mesenteric (visceral) fat tissue were removed and separately weighed. Also, at the start of the test period (the start of low-calorie feeding) and the end of the test period, plasma triglyceride level was measured. The changes in body weight before and after the test period is shown in FIG. 8, the feed intake during the first 10 days of the test period is shown in FIG. 9, the total weight of subcutaneous, epididymal, and mesenteric fat tissues per 100 g of body weight is shown in FIG. 10, and the changes in plasma triglyceride level before and after the test period is shown in FIG. 11. The results are shown as Mean±SD of each group.

diet-induced obese mice [3] = test: Test Example 2: glucosyl hesperidin and caffeine mixtures (10:1, 20:1, 40:1) fed in low-calorie feed to diet-induced obese mice; details: vs control group, caffeine 0.0125 mass %, glucosyl hesperidin 0.25 mass %; for weight of subcutaneous fat tissue / weight of mesenteric (visceral) fat tissue: 2 weeks low-calorie feed; for weight of subcutaneous fat tissue: FIG. 6; for weight of mesenteric (visceral) fat tissue: FIG. 7; for changes in body weight: before and after 2 weeks low-calorie feed, FIG. 4
Source text: Under the same conditions as in Test Example 1, the effect of the composition of the present invention comprising glucosyl hesperidin and caffeine was investigated. The glucosyl hesperidin and caffeine used here were the same as in Test Example 1.
Five-week-old male KK mice were fed with water and a powder feed for breeding (CE-2 (trade name), made by CLEA Japan, Inc.) for one week, and then fed with the high-calorie feed (4.70 kcal/g) in Table 1 for 3 weeks for induction of obesity. The mice were divided into 6 groups (a control group, a caffeine administration group, a glucosyl hesperidin administration group, and mixture of caffeine and glucosyl hesperidin (present invention) administration groups, 6 to 7 mice per group) and fed with the low-calorie feed (3.16 kcal/g) in Table 1 or the low-calorie feed supplemented with the corresponding test sample for 2 weeks, in expectation of using body fat. The feeds given to the test groups are as follows. • (1) Control group; low-calorie feed • (2) Caffeine administration group; low-calorie feed+0.0125 mass % of caffeine • (3) Glucosyl hesperidin administration group; low-calorie feed+0.25 mass % of glucosyl hesperidin • (4) Mixture of glucosyl hesperidin and caffeine (10:1) administration group; low-calorie feed+(0.25 mass % of glucosyl hesperidin+0.025 mass % of caffeine) • (5) Mixture of glucosyl hesperidin and caffeine (20:1) administration group; low-calorie feed+(0.25 mass % of glucosyl hesperidin+0.0125 mass % of caffeine) • (6) Mixture of glucosyl hesperidin and caffeine (40:1) administration group; low-calorie feed+(0.25 mass % of glucosyl hesperidin+0.00625 mass % of caffeine)
During the test period (2 weeks from the start of low-calorie feeding), body weight and feed intake were periodically measured. After the end of the test, the mice were euthanized, and subcutaneous fat tissue and mesenteric (visceral) fat tissue were removed and separately weighed.
as §1, with “4,” for “1,”, “5, the weight of subcutaneous fat tissue per 100 g of body weight is shown in FIG. 6,” for “2,”, “7.” for “3.”, “$, **,” for “**”, “10%, a risk less than 1%,” for “1%”

Row | Molecule | weight of mesenteric (visceral) fat tissue (diet-induced obese mice [1]) | changes in body weight (diet-induced obese mice [1]) | total weight of fat tissues (subcutaneous, epididymal, and mesenteric) (diet-induced obese mice [2]; 2 weeks low-calorie feed, FIG. 10) | plasma triglyceride level measured on the 14th day (diet-induced obese mice [2]; 14th day of low-calorie feed, FIG. 11) | changes in body weight (diet-induced obese mice [2]; before and after 2 weeks low-calorie feed, FIG. 8) | weight of subcutaneous fat tissue (diet-induced obese mice [3]) | weight of mesenteric (visceral) fat tissue (diet-induced obese mice [3]) | changes in body weight (diet-induced obese mice [3])
1 | Cn1c(=O)c2c(ncn2C)n(C)c1=O [caffeine] | did not show any significant difference | significantly lower values | did not show any significant difference | did not show any significant difference | lower values | did not show any significant difference | did not show any significant difference | values equivalent to those of the control group
2 | glucosyl hesperidin | did not show any significant difference | equivalent values |  |  |  | did not show any significant difference | did not show any significant difference | values equivalent to those of the control group
